Values of other authors in patent US20100280255A1, “PROCESS FOR MAKING SUBSTITUTED 2-AMINO-THIAZOLONES” (AMGEN INC., priority 2007, published 2010).

Key:
healthy human volunteers = healthy human volunteers treated
normal subjects = conditions: ingestion

For `CC1(C)[C@@H](OC(=O)CCC(=O)O)CC[C@]2(C)[C@H]3C(=O)C=C4[C@@H]5C[C@@](C)(C(=O)O)CC[C@]5(C)CC[C@@]4(C)[C@]3(C)CC[C@@H]12` [carbenoxolone], the “negative effect (of glucocorticoids) on bone nodule formation” value (bone nodule formation) is given as “blocked”, the hepatic insulin sensitivity (healthy human volunteers) is given as “improved” and the “reduction of the intraocular pressure” value (normal subjects) is given as 20%.
